Measured values: ChEMBL document CHEMBL1201862, “PubChem BioAssay data set” (2004)
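Five compound concentrations were applied to cells in 96-well plates for 48 hours; endpoints were derived by simple linear interpolation of the resulting dose-response curve. GI50 marks 50% less growth.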 Activity calls are given as the source filed them. Rule as the data show it: active = GI50 up to about 1.1 µM and inactive = higher.

Tests used:
Assay in all cases: NCI-60 cell line screen, 48 h
EKVX = tested on: EKVX
SNB-19 = tested on: SNB-19
HT-29 = tested on: HT-29
COLO 205 = tested on: COLO 205
SN12C = tested on: SN12C
SK-MEL-2 = tested on: SK-MEL-2
CCRF-CEM = tested on: CCRF-CEM
OVCAR-8 = tested on: OVCAR-8
SK-MEL-5 = tested on: SK-MEL-5
OVCAR-5 = tested on: OVCAR-5
NCI-H522 = tested on: NCI-H522
HCT-116 = tested on: HCT-116
Hs-578T = tested on: Hs-578T
T47D = tested on: T47D
MDA-MB-231 = tested on: MDA-MB-231
Malme-3M = tested on: Malme-3M
UACC-62 = tested on: UACC-62
NCI-H460 = tested on: NCI-H460
PC-3 = tested on: PC-3
A549 = tested on: A549

SMILES	GI50 (EKVX)	GI50 (SNB-19)	GI50 (HT-29)	GI50 (COLO 205)	GI50 (SN12C)	GI50 (SK-MEL-2)	GI50 (CCRF-CEM)	GI50 (OVCAR-8)	GI50 (SK-MEL-5)	GI50 (OVCAR-5)	GI50 (NCI-H522)	GI50 (HCT-116)	GI50 (Hs-578T)	GI50 (T47D)	GI50 (MDA-MB-231)	GI50 (Malme-3M)	GI50 (UACC-62)	GI50 (NCI-H460)	GI50 (PC-3)	GI50 (A549)
O=C(Nc1sccc1S(=O)(=O)c1ccc(Cl)cc1)c1ccccc1	> 100 µM (inactive)	> 100 µM (inactive)	> 100 µM (inactive)	> 100 µM (inactive)	> 100 µM (inactive)	> 100 µM (inactive)	> 100 µM (inactive)	> 100 µM (inactive)	> 100 µM (inactive)	> 100 µM (inactive)	> 100 µM (inactive)	> 100 µM (inactive)	> 100 µM (inactive)	> 100 µM (inactive)	> 100 µM (inactive)	> 100 µM (inactive)	> 100 µM (inactive)	> 100 µM (inactive)	> 100 µM (inactive)	> 100 µM (inactive)
CCOC(=O)c1c(SCCN(CC)CC)n(-c2ccccc2)c(=S)n(-c2ccccc2)c1=O	9.59 µM (inactive)	17.9 µM (inactive)	4.47 µM (inactive)	2.5 µM (inactive)	1.91 µM (inactive)	13.4 µM (inactive)	1.26 µM (inactive)	2.64 µM (inactive)	2.61 µM (inactive)	30.3 µM (inactive)	1.56 µM (inactive)	3.87 µM (inactive)	3.32 µM (inactive)	2.55 µM (inactive)	3.33 µM (inactive)	1.42 µM (inactive)	4.61 µM (inactive)	6.93 µM (inactive)	2.05 µM (inactive)	3.16 µM (inactive)
CCOC1C=CC(=O)C(CO)O1 (stereo not given)	14.3 µM (inactive)	19.7 µM (inactive)	8.26 µM (inactive)	13.4 µM (inactive)	13.3 µM (inactive)	19.4 µM (inactive)	1.88 µM (inactive)	11.6 µM (inactive)	21.1 µM (inactive)	18.1 µM (inactive)	1.67 µM (inactive)	5.12 µM (inactive)	23.3 µM (inactive)	8.81 µM (inactive)	17.3 µM (inactive)	12.2 µM (inactive)	12.4 µM (inactive)	14.5 µM (inactive)	13.8 µM (inactive)	17.6 µM (inactive)
FC(F)(F)c1ccccc1N1CCN(c2nc(-c3cccs3)nc3ccc(Br)cc23)CC1	24.4 µM (inactive)	50.7 µM (inactive)	29.5 µM (inactive)	23.4 µM (inactive)	45.8 µM (inactive)	24.9 µM (inactive)	0.581 µM (active)	66.2 µM (inactive)	14.6 µM (inactive)	27.6 µM (inactive)	35 µM (inactive)	33.2 µM (inactive)	36.5 µM (inactive)	2.37 µM (inactive)	21 µM (inactive)	24 µM (inactive)	23 µM (inactive)	27.7 µM (inactive)	11.7 µM (inactive)	33.8 µM (inactive)
N#Cc1c(N2CCCC2)ncn(-c2ccccc2)c1=O	> 100 µM (inactive)	> 100 µM (inactive)	> 100 µM (inactive)	> 100 µM (inactive)	> 100 µM (inactive)	> 100 µM (inactive)	> 100 µM (inactive)	> 100 µM (inactive)	> 100 µM (inactive)	> 100 µM (inactive)	> 100 µM (inactive)	> 100 µM (inactive)	> 100 µM (inactive)	> 100 µM (inactive)	> 100 µM (inactive)	> 100 µM (inactive)	> 100 µM (inactive)	> 100 µM (inactive)	> 100 µM (inactive)	> 100 µM (inactive)
CCOC(=O)CCN1C(=O)C(=O)N(c2ccc(OC)cc2)C1=S	> 100 µM (inactive)	> 100 µM (inactive)	> 100 µM (inactive)	> 100 µM (inactive)	> 100 µM (inactive)	> 100 µM (inactive)	> 100 µM (inactive)	> 100 µM (inactive)	> 100 µM (inactive)	> 100 µM (inactive)	14.8 µM (inactive)	> 100 µM (inactive)	47.1 µM (inactive)	> 100 µM (inactive)	> 100 µM (inactive)	> 100 µM (inactive)	16 µM (inactive)	53.5 µM (inactive)	> 100 µM (inactive)	> 100 µM (inactive)
Cc1cccc2c1NC(=S)[C@@H]1CCCN1C2=O	> 100 µM (inactive)	> 100 µM (inactive)	> 100 µM (inactive)	> 100 µM (inactive)	> 100 µM (inactive)	> 100 µM (inactive)	> 100 µM (inactive)	> 100 µM (inactive)	> 100 µM (inactive)	> 100 µM (inactive)	> 100 µM (inactive)	> 100 µM (inactive)	> 100 µM (inactive)	> 100 µM (inactive)	> 100 µM (inactive)	> 100 µM (inactive)	> 100 µM (inactive)	> 100 µM (inactive)	> 100 µM (inactive)	> 100 µM (inactive)
CC1(C)C2CCC3CC(CCC#N)CCC3C21C#N (stereo not given)	> 100 µM (inactive)	> 100 µM (inactive)	> 100 µM (inactive)	> 100 µM (inactive)	> 100 µM (inactive)	> 100 µM (inactive)	> 100 µM (inactive)	> 100 µM (inactive)	> 100 µM (inactive)	> 100 µM (inactive)	> 100 µM (inactive)	> 100 µM (inactive)	> 100 µM (inactive)	> 100 µM (inactive)	> 100 µM (inactive)	> 100 µM (inactive)	> 100 µM (inactive)	> 100 µM (inactive)	> 100 µM (inactive)	> 100 µM (inactive)
Cc1c(C)c(S(=O)(=O)N(CCCN)OCCCN)c(C)c2c1OC(C)(C)CC2	16.7 µM (inactive)	11.8 µM (inactive)	15.1 µM (inactive)	17.5 µM (inactive)	15.1 µM (inactive)	17.5 µM (inactive)	10.2 µM (inactive)	16.3 µM (inactive)	15.6 µM (inactive)	13 µM (inactive)	14 µM (inactive)	16.5 µM (inactive)	14.8 µM (inactive)	16.9 µM (inactive)	4.63 µM (inactive)	13.6 µM (inactive)	14.8 µM (inactive)	15.8 µM (inactive)	12 µM (inactive)	15.6 µM (inactive)
Oc1ccc(-c2nc(-c3cccnc3)c(-c3ccc(Cl)cc3)[nH]2)cc1	13.2 µM (inactive)	16.5 µM (inactive)	15.2 µM (inactive)	10.3 µM (inactive)	15.8 µM (inactive)	18.2 µM (inactive)	1.79 µM (inactive)	14.8 µM (inactive)	12.1 µM (inactive)	19.3 µM (inactive)	10.3 µM (inactive)	13.4 µM (inactive)	19.4 µM (inactive)	11.7 µM (inactive)	16.2 µM (inactive)	13.5 µM (inactive)	12.9 µM (inactive)	11.1 µM (inactive)	5.58 µM (inactive)	15.3 µM (inactive)
